Experimental data published in publication PMC9995496, “A screen for MeCP2-TBL1 interaction inhibitors using a luminescence-based assay” (Scientific Reports, 2023).
Where a name gives a salt, the structure may show the parent alone. Read-outs that look alike come from different tables or passages of the source.

Tested on: PRKACA-PRKAR2A interaction (SmBiT-PRKACA / LgBiT-PRKAR2A), protein kinase A
Design: NanoLuc complementation counter-screen in cell extract, PRKACA with PRKAR2A, loss of luminescence, detects NanoLuc interference
Conditions: counter-screen for NanoLuc interference, 0.5 h, 20 µM, inhibitor

Structure (SMILES)	Inh (PKA) [%]	Inh (PKA) (Inh (PKA)) [%]
COC(=O)N1CCN(Cc2cccc(NC(=O)Nc3ccc(C)nc3)c2F)CC1 [UM0142008:01, Omecamtiv mecarbil]	3.022	
COc1cc(CCc2cc(NC(=O)c3ccc(N4C[C@@H](C)N[C@@H](C)C4)cc3)n[nH]2)cc(OC)c1 [UM0142009:01, AZD4547]	12.3	
Cc1ccc(NC(=O)C2(c3ccc4c(c3)OC(F)(F)O4)CC2)nc1-c1cccc(C(=O)O)c1 [UM0142010:01, VX-809]	21.09	
Cn1cnc(N)c2ncnc1-2 [UM0142011:01, 3-Methyladenine]	0.4537	
Oc1ncnc2[nH]ncc12 [UM0142014:01, Allopurinol]	-0.9072	
CC1CNc2c(cccc2S(=O)(=O)N[C@@H](CCCNC(=N)N)C(=O)N2CC[C@@H](C)C[C@@H]2C(=O)O)C1 (stereo partly drawn) [UM0142015:01, Argatroban]	1.414	
CNC(=O)c1ccc(N2C(=S)N(c3cnc(C#N)c(C(F)(F)F)c3)C(=O)C23CCC3)cc1F [UM0142016:01, ARN-509]	2.375	
C=CC(=O)Nc1ccc2ncnc(Nc3ccc(OCc4cccc(F)c4)c(Cl)c3)c2c1 [UM0142018:01, AST-1306]	12.53	
CNC(=O)c1cccc(-c2ccc3c(N4CCOC[C@@H]4C)nc(N4CCOC[C@@H]4C)nc3n2)c1 [UM0142021:01, AZD2014]	7.565	
CNC(=O)CN1CCC(Oc2cc3c(Nc4cccc(Cl)c4F)ncnc3cc2OC)CC1 [UM0142022:01, AZD8931 (Sapitinib)]	6.017	
CCCCCCOC(=O)NC(=N)c1ccc(NCc2nc3cc(C(=O)N(CCC(=O)OCC)c4ccccn4)ccc3n2C)cc1 [UM0142023:01, BIBR-1048]		4.293
CCCCOc1c(C(=O)c2c(F)cc(C)cc2F)c[nH]c2nncc1-2 [UM0142024:01, BMS265246]	6.004	
O=c1[nH]c2ccc(Cl)cc2c(N[C@@H]2CN3CCC2CC3)c1-c1nc2ccccc2[nH]1 [UM0142025:01, CHIR-124]	30.1	
Nc1nc(NCCNc2ncc(-n3ccnc3)c(-c3ccc(Cl)cc3Cl)n2)ccc1[N+](=O)[O-] [UM0142026:01, CHIR-98014]	80.31	
CN(C)C(=O)[C@H](O)[C@H](Cc1ccccc1)NC(=O)c1cc2cc(Cl)ccc2[nH]1 [UM0142029:01, CP-91149]	53.3	
O=c1[nH]cnc2c1ncn2[C@H]1CC[C@@H](CO)O1 [UM0142031:01, Didanosine]	-1.093	
CCc1cnn2c(NCc3ccc[n+]([O-])c3)cc(N3CCCC[C@H]3CCO)nc12 [UM0142032:01, Dinaciclib (SCH727965)]	1.224	
CN(CCOc1ccc(NS(C)(=O)=O)cc1)CCc1ccc(NS(C)(=O)=O)cc1 [UM0142033:01, Dofetilide]	-0.1542	
CN1CCN(c2ccc3nc(-c4c(N)c5c(F)cccc5[nH]c4=O)[nH]c3c2)CC1 [UM0142034:01, Dovitinib Dilactic acid]		16.9
CCN1CC(CCN2CCOCC2)C(c2ccccc2)(c2ccccc2)C1=O (stereo not drawn) [UM0142035:01, Doxapram HCl]	1.453	
C[C@H]1c2cccc(O)c2C(=O)C2=C(O)[C@]3(O)C(=O)C(C(N)=O)=C(O)[C@@H](N(C)C)[C@@H]3[C@@H](O)[C@@H]21 [UM0142036:01, Doxycycline HCl]		1.035

Structure (SMILES)	Inh (PKA) [%]	Inh (PKA) (Inh (PKA)) [%]
Nc1nc(=O)n([C@@H]2CS[C@H](CO)O2)cc1F [UM0142037:01, Emtricitabine]	-0.284	
C[C@]12CC[C@@H]3c4ccc(O)cc4CC[C@H]3[C@@H]1CCC2=O [UM0142038:01, Estrone]	7.468	
O=C1[C@H](CC[C@H](O)c2ccc(F)cc2)[C@@H](c2ccc(O)cc2)N1c1ccc(F)cc1 [UM0142039:01, Ezetimibe]	29.66	
CC(C(=O)O)c1ccc(-c2ccccc2)c(F)c1 (stereo not drawn) [UM0142040:01, Flurbiprofen]	28.61	
Nc1ccn([C@@H]2O[C@H](CO)[C@@H](O)C2(F)F)c(=O)n1 [UM0142041:01, Gemcitabine]		-0.03613
CC(C)c1noc(N2CCC(COc3ccc(-c4ccc(S(C)(=O)=O)cc4)nc3)CC2)n1 [UM0142042:01, GSK1292263]	2.417	
CNC(=O)c1c(F)cccc1Nc1nc(Nc2cc3c(ccn3C(=O)CN(C)C)cc2OC)nc2[nH]ccc12 [UM0142043:01, GSK1838705A]	3.955	
O=C(O)Cc1cccc(OCCCN(Cc2cccc(C(F)(F)F)c2Cl)CC(c2ccccc2)c2ccccc2)c1 [UM0142045:01, GW3965 HCl]	20.75	
CC(C)Cc1ccc(C(C)C(=O)O)cc1 (stereo not drawn) [UM0142046:01, Ibuprofen]	3.005	
CCOC(=O)[C@H](CCc1ccccc1)N[C@@H](C)C(=O)N1C(=O)N(C)C[C@H]1C(=O)O [UM0142047:01, Imidapril HCl]	2.302	
CNC(=O)c1ccc(-c2cnc3ncc(Cc4ccc5ncccc5c4)n3n2)cc1F [UM0142048:01, INCB28060]	6.016	
CC(O)c1cc(C(=O)N[C@@H](C)Cn2ccc(-c3ccc(C#N)c(Cl)c3)n2)n[nH]1 (stereo partly drawn) [UM0142049:01, ODM-201]	2.703	
COC(=O)C1=C(C)NC(C)=C(C(=O)OC(C)C)C1c1cccc2nonc12 (stereo not drawn) [UM0142050:01, Isradipine (Dynacirc)]	94.06	
COC(=O)C1=C(C#N)NC(C)=C(C(=O)OC(C)C)C1c1cccc([N+](=O)[O-])c1 (stereo not drawn) [UM0142051:01, Nilvadipine]	88.81	
Nc1ccn([C@@H]2CS[C@H](CO)O2)c(=O)n1 [UM0142052:01, Lamivudine]	-0.4847	
CCN(C(=O)c1c(O)c2c(Cl)cccc2n(C)c1=O)c1ccccc1 [UM0142053:01, Laquinimod (ABR-215062)]	1.122	
c1ccc(-c2nn3c(c2-c2ccnc4cc(OCCN5CCOCC5)ccc24)CCC3)nc1 [UM0142054:01, LY2109761]	-0.08675	
NC1=N[C@@]2(c3cc(NC(=O)c4ccc(F)cn4)ccc3F)COC[C@H]2CS1 [UM0142055:01, LY2886721]	5.898	
Nc1nc(CC(=O)Nc2ccc(CCNC[C@H](O)c3ccccc3)cc2)cs1 [UM0142057:01, Mirabegron (YM178)]	3.158	
CN(C[C@@H]1COCCO1)S(=O)(=O)Nc1ccc2ccc3ncc(-c4cnn(C)c4)cc3c(=O)c2c1 [UM0142058:01, MK-2461]	13.67	
Cn1cc(-c2cnn3c(N)c(Br)c([C@@H]4CCCNC4)nc23)cn1 [UM0142059:01, MK-8776 (SCH-900776)]	4.838	

Structure (SMILES)	Inh (PKA) [%]	Inh (PKA) (Inh (PKA)) [%]
Cc1ccnc2c1NC(=O)c1cccnc1N2C1CC1 [UM0142060:01, Nevirapine]	3.121	
COCCOC(=O)C1=C(C)NC(C)=C(C(=O)OC(C)C)C1c1cccc([N+](=O)[O-])c1 (stereo not drawn) [UM0142061:01, Nimodipine]	89.11	
COc1ccc(-c2ccc3ncc4c(c3c2)n(-c2ccc(N3CCNCC3)c(C(F)(F)F)c2)c(=O)n4C)cn1 [UM0142062:01, NVP-BGT226]	19.52	
Cn1cc(-c2ccc3ncc(Cc4ccc5ncccc5c4)n3n2)cn1 [UM0142063:01, NVP-BVU972]	13.19	
COc1ccc(-c2cc3c(C)nc(N)nc3n([C@H]3CC[C@H](OCCO)CC3)c2=O)cn1 [UM0142064:01, PF-04691502]	7.804	
CNC(=O)c1nn(C)c2c1C(C)(C)Cc1cnc(Nc3ccc(N4CCN(C)CC4)cc3)nc1-2 [UM0142065:01, PHA-848125]	8.149	
O=C(O)C[C@H](O)C[C@H](O)/C=C/c1c(C2CC2)nc2ccccc2c1-c1ccc(F)cc1 [UM0142066:01, Pitavastatin Calcium]	41.78	
CCn1nnc2c(N3CCOCC3)nc(-c3ccc(NC(=O)Nc4ccc(C(=O)N5CCN(C)CC5)cc4)cc3)nc21 [UM0142067:01, PKI-402]	0.4885	
CO[C@H]1/C=C/O[C@@]2(C)Oc3c(C)c(O)c4c(O)c(c5c(nc6cc(C)ccn65)c4c3C2=O)NC(=O)/C(C)=C\C=C\[C@H](C)[C@H](O)[C@@H](C)[C@@H](O)[C@@H](C)[C@H](OC(C)=O)[C@@H]1C [UM0142068:01, Rifaximin (Xifaxan)]	35.34	
CCN(C)C(=O)Oc1cccc([C@H](C)N(C)C)c1 [UM0142069:01, Rivastigmine Tartrate]		1.4
CC(C)c1nc(N(C)S(C)(=O)=O)nc(-c2ccc(F)cc2)c1/C=C/[C@@H](O)C[C@@H](O)CC(=O)O [UM0142070:01, Rosuvastatin Calcium]	4.68	
CN1CCN(c2nc(C3=C(c4c[nH]c5ccccc45)C(=O)NC3=O)c3ccccc3n2)CC1 [UM0142072:01, Sotrastaurin (AEB071)]	65.03	
CC(C)(O)CC(=O)NCCn1ccc2ncnc(Nc3ccc(Oc4cccc(C(F)(F)F)c4)c(Cl)c3)c21 [UM0142073:01, TAK-285]	28.39	
Cc1cn([C@@H]2C[C@@H](O)[C@H](CO)O2)c(=O)[nH]c1=O [UM0142074:01, Telbivudine]	-0.434	
COc1cc([C@@H]2c3cc4c(cc3[C@@H](O[C@@H]3O[C@@H]5CO[C@@H](c6cccs6)O[C@H]5[C@H](O)[C@H]3O)[C@H]3COC(=O)[C@H]23)OCO4)cc(OC)c1O [UM0142075:01, Teniposide]	6.975	
CSc1ccc2c(c1)N(CCC1CCCCN1C)c1ccccc1S2 (stereo not drawn) [UM0142076:01, Thioridazine HCl]	11.27	
COc1cc(Nc2ncc(F)c(Nc3ccc4c(n3)NC(=O)C(C)(C)O4)n2)cc(OC)c1OC [UM0142079:01, R406]		54.73
CN1CCc2c(c3ccccc3n2Cc2ccc(C(=O)NO)cc2)C1 [UM0142080:01, Tubastatin A HCl]	2.454	
CCCCCCCCc1ccc(CCC(N)(CO)CO)cc1 [UM0142081:01, Fingolimod (FTY720)]	6.851	
CNC(=O)c1cc(COc2nnc(Nc3ccc(Cl)cc3)c3ccoc23)ccn1 [UM0142083:01, Telatinib (BAY 57-9352)]	10.72	
CC(C)n1nc(-c2ccc3oc(N)nc3c2)c2c(N)ncnc21 [UM0142084:01, INK 128 (MLN0128)]	29.78	
